Literature values as cited in patent US5296224A, “Kava-kava extract, process for the production thereof and use thereof” (Dr. Wilmar Schwabe GmbH & Co., priority 1990, dated 1994).

Assays:
skin = conditions: Shulgin 1973
[1] = 21° C.
[2] = administered as pure substance; Kretschmer, MMW 4/1970

| skin-specific secondary effects (skin) | SMILES | maximum solubility in water [1] | effective daily dose [2] |
| --- | --- | --- | --- |
| skin-specific secondary effects | COc1ccc(/C=C/C(=O)c2c(O)cc(OC)cc2OC)cc1 [flavokawin A] | – | – |
| – | COC1=CC(=O)O[C@@H](/C=C/c2ccccc2)C1 [kawain] | 2.2 mg/100 ml water | about 200 mg |
| skin-specific secondary effects | COc1cc(O)c(C(=O)/C=C/c2ccccc2)c(OC)c1 [flavokawin B] | – | – |
